Consider three compounds from patent publication US9040061B2, “Topical formulation for administering a compound” (Rigel Pharmaceuticals, Inc., priority 2011, dated 2015).

Series [1] can be described thus: Solubility studies of compound I. It is filed as physicochemical. The procedure: The solubility of compound I free base in water is only 2 μg/mL. […] Accordingly, the free base was utilized for the formulation development of compound I.
Series [2] is described as follows: Solubility studies of compound I. The series is classed as physicochemical. The source holds these as a separate data set.
Series [3] concerns human Ramos B cells stimulated with human IL-4 (JAK1 and JAK3, CD23 upregulation). The series is described as follows: Ramos B-cell line stimulated with IL-4, CD23 upregulation (FACS). It is filed as cell-based. Particulars: IL-4 50 units/mL for 20-24 hours, anti-CD23-PE FACS. The text has this: One means of assaying for JAK inhibition is detection of the effect of compound I on the upregulation of downstream gene products. In the Ramos/IL4 assay, B-cells are stimulated with the cytokine Interleukin-4 (IL-4) leading to the activation of the JAK/Stat pathway through phosphorylation of the JAK family kinases, JAK1 and JAK3, which in turn phosphorylate and activate the transcription factor Stat-6. […] To study the effect of inhibitors (for example, the 2,4-substituted pyrimidinediamine compounds described herein) on the JAK1 and JAK3 kinases, human Ramos B cells are stimulated with human IL-4. Twenty to 24 hours post stimulation, cells are stained for upregulation of CD23 and analyzed using flow cytometry (FACS). […] An exemplary assay of this type is described in greater detail below.
B-cells stimulated with cytokine Interleukin-4 (IL-4) activate the JAK/Stat pathway through phosphorylation of the JAK family kinases, JAK-1 and JAK-3, which in turn phosphorylate and activate the transcription factor Stat-6. […] To study the effect of inhibitors on the JAK family kinases, human Ramos B cells are stimulated with human IL-4.
The Ramos B-cell line was acquired from ATCC (ATCC Catalog No. CRL-1596). […]
Cells were spun down and suspended in RPMI with 5% serum. […] Cells were then spun down and stained with anti-CD23-PE (BD Pharmingen, San Diego, Calif., Cat No. 555711) and analyzed by FACS. […]

For the next series, the system named is primary human T-cells. The series is described as follows: Primary human T-cell proliferation assay stimulated with IL-2. The series is classed as cell-based. Particulars: IL-2, 72 hours, CellTiter-Glo. The text has this:
The JAK activity of compound I may further be characterized by assaying the effect of compound I on the proliferative response of primary human T-cells. In this assay, primary human T-cells derived from peripheral blood and pre-activated through stimulation of the T-cell receptor and CD28, proliferate in culture in response to the cytokine Interleukin-2 (IL-2). This proliferative response is dependent on the activation of JAK1 and JAK3 tyrosine kinases, which phosphorylate and activate the transcription factor Stat-5. The primary human T-cells are incubated with compound I in the presence of IL-2 for 72 hours and at the assay endpoint intracellular ATP concentrations are measured to assess cell viability. A reduction in cell proliferation compared to control conditions is indicative of inhibition of the JAK kinase pathway. An exemplary assay of this type is described in greater detail below.
Primary human T-cells derived from peripheral blood and pre-activated through stimulation of the T-cell receptor and CD28, proliferate in vitro in response to the cytokine Interleukin-2 (IL-2). […]
Proliferation was measured using CellTiter-Glo® Luminescent Cell Viability Assay (Promega), which determines the number of viable cells in culture based on quantitation of the ATP present, as an indicator of metabolically active cells. […]
In general terms: In ATP-based viability assays light output follows the ATP content of the culture.

For another series, the target named is T1, Syk (Homo sapiens, UniProt P43405).
T1 construct: endogenous in cells
Nature of the series: Human cell based assay against Syk. The note with it: human cell based assays, read-out: half maximal effective concentration (EC50).

Series [4] has as its system other cytokine (IL-1β and TNFα) signaling. The series is described as follows: Other cytokine signaling. The series is classed as cell-based.
The test system of series [5] is receptor tyrosine kinase (RTK) signaling. The series is described as follows: Receptor tyrosine kinase signaling. It is filed as cell-based.
The next series has as its system cell proliferation. The series is described as follows: Cell proliferation. It is filed as cell-based.

The structures appear in SMILES notation. Values after ≈ are worked out from the molar mass of the structure shown. Where a name gives a salt, the structure may show the parent alone. Read-outs that look alike come from different tables or passages of the source. Marks after values point to notes of the source that are not given here.

As usually defined, the solubility is the concentration that dissolves in the medium under given conditions. A word on the IC50: it is the concentration that inhibits the measured activity by half.

For `C#CCOc1ccc(Nc2nc(Nc3ccc(C)c(S(N)(=O)=O)c3)ncc2F)cc1` [Compound I HCl, N2-(3-aminosulfonyl-4-methylphenyl)-5-fluoro-N4-[4-(prop-2-ynyloxy)phenyl]-2,4-pyrimidinediamine], the solubility in series [1] (40% TPGS/60% PEG400, organic solvent or mixture, 40% TPGS/60% PEG400, read-out: Solubility) stood at 1700 µg/mL; in series [1] (IPA, organic solvent or mixture, IPA, read-out: Solubility) it was 37 µg/mL; in series [1] (oleyl alcohol, oil or lipid, Oleyl alcohol, read-out: Solubility), 200 µg/mL; in series [1] (polyoxyglyceride (Labrafil M1944 CS), oil or lipid, Polyoxyglyceride (Labrafil M1944 CS), read-out: Solubility), 70 µg/mL; in series [1] (polyoxyglyceride (Labrasol), oil or lipid, Polyoxyglyceride (Labrasol), read-out: Solubility) it was 1800 µg/mL; in series [1] (triglyceride, oil or lipid, Triglyceride, read-out: Solubility), 20 µg/mL. For the same compound, the solubility in series [2] (DMI, organic solvent or mixture, DMI (temperature not given), read-out: Solubility) was 0.4 mg/mL; in series [2] (EtOH, organic solvent or mixture, EtOH (temperature not given), read-out: Solubility), 0.3 mg/mL; in series [2] (PEG400 (temperature not given)), 2.6 ^e mg/mL; in series [2] (PG) it was 5.2 ^e mg/mL; in series [2] (diethylene glycol monoethyl ether (Transcutol P), organic solvent or mixture, Diethylene glycol monoethyl ether (transcutol P), read-out: Solubility), 0.9 mg/mL; in series [2] (isopropyl myristate, oil or lipid, Isopropyl Myristate, read-out: Solubility) it was 0.005 mg/mL. Also, the solubility in series [2] (propylene glycol laurate (Lauroglycol FCC), oil or lipid, Propylene Glycol Laurate (Lauroglycol FCC), read-out: Solubility) amounted to 0.02 mg/mL; in series [2] (propylene glycol monocaprylate (Capryol 90), oil or lipid, Propylene Glycol Monocaprylate (Capryol 90), read-out: Solubility) it was 0.07 mg/mL.

Consider `C#CCOc1ccc(Nc2nc(Nc3ccc(C)c(S(N)(=O)=O)c3)ncc2F)cc1` [Compound I besylate salt, N2-(3-aminosulfonyl-4-methylphenyl)-5-fluoro-N4-[4-(prop-2-ynyloxy)phenyl]-2,4-pyrimidinediamine], for which the solubility is reported as 48 mg/mL in series [2] (PEG400 (temperature not given)) and 15 ^d mg/mL in series [2] (PG).

Consider `C#CCOc1ccc(Nc2nc(Nc3ccc(C)c(S(N)(=O)=O)c3)ncc2F)cc1` [Compound I, N2-(3-aminosulfonyl-4-methylphenyl)-5-fluoro-N4-[4-(prop-2-ynyloxy)phenyl]-2,4-pyrimidinediamine], for which the solubility came to 77000 µg/mL (≈ 180 mM) in series [1] (4% H2O-96% THF, organic solvent or mixture, 4% H2O-96% THF, read-out: Solubility); 202000 µg/mL (≈ 473 mM) in series [1] (12% H2O-88% THF, organic solvent or mixture, 12% H2O-88% THF, read-out: Solubility); 163000 µg/mL (≈ 381 mM) in series [1] (16% H2O-84% THF, organic solvent or mixture, 16% H2O-84% THF, read-out: Solubility); 70000 µg/mL (≈ 164 mM) in series [1] (95% THF-5% PEG400, organic solvent or mixture, 95% THF-5% PEG400, read-out: Solubility); 124000 µg/mL (≈ 290 mM) in series [1] (DMI, 25 °C, organic solvent or mixture, DMI, determined at 25° C., read-out: Solubility); 2300 µg/mL (≈ 5.38 mM) in series [1] (Miglyol 812N, oil or lipid, Miglyol 812N, read-out: Solubility). The solubility in series [1] (castor oil, oil or lipid, Castor Oil, read-out: Solubility) was 7400 µg/mL (≈ 17.3 mM); in series [1] (water, 25 °C, water, 25° C., read-out: water solubility), 2 µg/mL (≈ 0.00468 mM); in series [2] (5% THF-95% PEG400, organic solvent or mixture, 5% THF-95% PEG400, read-out: Solubility), 117 mg/mL (≈ 274 mM); in series [2] (10% THF-90% PEG400, organic solvent or mixture, 10% THF-90% PEG400, read-out: Solubility), 129 mg/mL (≈ 302 mM); in series [2] (20% EtOH-80% PEG400, organic solvent or mixture, 20% EtOH-80% PEG400, read-out: Solubility), 126 mg/mL (≈ 295 mM); in series [2] (20% H2O-80% THF, organic solvent or mixture, 20% H2O-80% THF, read-out: Solubility), 133 mg/mL (≈ 311 mM). Also, the solubility in series [2] (50% EtOH-50% PEG400, organic solvent or mixture, 50% EtOH-50% PEG400, read-out: Solubility) was 136 mg/mL (≈ 318 mM); in series [2] (90% THF-10% PEG400, organic solvent or mixture, 90% THF-10% PEG400, read-out: Solubility) it was 75 mg/mL (≈ 175 mM); in series [2] (EtOH, 25 °C, organic solvent or mixture, EtOH, determined at 25° C., read-out: Solubility) it was 3.2 mg/mL (≈ 7.49 mM); in series [2] (Glycofurol, listed as Compound I free base), >205 ^b mg/mL; in series [2] (PEG400 (temperature not given), listed as Compound I free base) it was 129 ^c mg/mL; in series [2] (PEG400, 25 °C, organic solvent or mixture, PEG400, determined at 25° C., read-out: Solubility), greater than 200 mg/mL. The solubility in series [2] (PEG400, determined at 25° C.) was 292 mg/mL (≈ 683 mM); in series [2] (PG, listed as Compound I free base), 27 ^c mg/mL; in series [2] (glycofurol, organic solvent or mixture, Glycofurol, read-out: Solubility) it was greater than 200 mg/mL; in series [2] (glycofurol/water 8/2, organic solvent or mixture, Glycofurol/water 8/2, read-out: Solubility), less than 205 mg/mL; in series [2] (glycofurol/water 9/1 w/w, organic solvent or mixture, Glycofurol/water 9/1 w/w, read-out: Solubility), greater than 202 mg/mL; in series [2] (water, 25 °C, water, determined at 25° C., read-out: Solubility), 0.002 mg/mL (≈ 0.00468 mM). Moreover, the “compound I concentration that can be obtained (solubility study)” value in series [1] (at 45° C. in a formulation containing 14% water, 45% PEG400, and 20% PEG4500) is 120 mg/g. The IC50 in series [3] came to 0.056 nM; in the series on primary human T-cells, 0.181 nM. Also, the EC50 at Syk was roughly 140 nM. Moreover, the “activity on other cytokine (IL-1β and TNFα) signaling” value in series [4] was “little or no activity”. Also, in series [5], the “activity on receptor tyrosine kinase (RTK) signaling” value is reported as “little or no activity”. In the series on cell proliferation, the “inhibition of cell proliferation” value is “not a broad inhibitor of cell proliferation”.
